Experimental data reported in ChEMBL document CHEMBL3867466, “Synthesis and biological evaluation of novel 2,4,5-triarylimidazole-1,2,3-triazole derivatives via click chemistry as α-glucosidase inhibitors” (Bioorg Med Chem Lett, 2016).

Target: Alpha-glucosidase MAL12 (Saccharomyces cerevisiae) (UniProt P53341)
Assay: Potency index, ratio of acarbose IC50 to compound IC50 for bakers yeast alpha-glucosidase

Alpha-glucosidase MAL12 (Saccharomyces cerevisiae), sequence (P53341 whole entry, looked up): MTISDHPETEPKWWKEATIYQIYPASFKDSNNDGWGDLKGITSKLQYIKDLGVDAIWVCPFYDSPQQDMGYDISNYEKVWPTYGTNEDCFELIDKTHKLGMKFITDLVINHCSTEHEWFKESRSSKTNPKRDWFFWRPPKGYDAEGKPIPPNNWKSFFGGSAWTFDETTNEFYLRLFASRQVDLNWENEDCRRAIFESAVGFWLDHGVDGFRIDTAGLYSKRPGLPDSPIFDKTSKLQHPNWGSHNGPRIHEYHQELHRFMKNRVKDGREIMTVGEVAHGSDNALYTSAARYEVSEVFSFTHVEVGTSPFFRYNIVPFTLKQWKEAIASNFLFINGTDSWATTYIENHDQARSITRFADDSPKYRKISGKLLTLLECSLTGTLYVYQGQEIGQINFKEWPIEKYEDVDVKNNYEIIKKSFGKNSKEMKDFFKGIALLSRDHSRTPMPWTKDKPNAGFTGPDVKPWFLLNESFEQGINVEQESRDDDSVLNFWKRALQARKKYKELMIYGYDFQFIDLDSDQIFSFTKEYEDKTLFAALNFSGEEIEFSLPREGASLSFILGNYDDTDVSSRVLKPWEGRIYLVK

Q: Which Ratio IC50 does the source give for CCOc1ccccc1NC(=O)Cn1cc(Cn2c(-c3cccc(Br)c3)nc(-c3ccccc3)c2-c2ccccc2)nn1 here?
A: 52
